The results in this text go back to patent publication US20250295628A1 (priority 2022, published 2025).

A short description of one series: Solid stability of compositions 1-11 and compounds 1A-11A: main component content over time under different conditions (Example 37, Table 32). It is filed as physicochemical. As to conditions: 5 ± 3° C., 0 d (0 day content converted to 100%). The protocol: Compositions 1-11 and compounds 1A-11A were placed at environments of −25° C., 5±3° C., 25±2° C./60±5% RH, 40±2° C./75±5% RH, 60° C. for 0 d, 5 d and 10 d (d refers to day), respectively, and changes of the main component content (the main component content of 0 day was converted to 100%) were measured, the results are shown in Table 32.
For `O=C([O-])C(Cc1cccs1)N(CC(O)C(O)C(O)C(O)CO)C(=S)[S][Na].[Na+]` (stereo not drawn) [Compound 8A], the main component content came to 100%.

For `O=C([O-])C(Cc1cncs1)N(CC(O)C(O)C(O)C(O)CO)C(=S)[S][Na].[Na+]` (stereo not drawn) [Compound 9A], the main component content amounted to 100%.

The compound `O=C([O-])C(CO)N(CC(O)C(O)C(O)C(O)CO)C(=S)[S][K].[K+]` (stereo not drawn) [Compound 10A] returned a main component content of 100%.

The same series, now with this note: 5 ± 3° C., 5 d.
On to `O=C([O-])C(Cc1cccs1)N(CC(O)C(O)C(O)C(O)CO)C(=S)[S][Na].[Na+]` (stereo not drawn) [Compound 8A], for which the main component content was 97.9%.

With `O=C([O-])C(Cc1cncs1)N(CC(O)C(O)C(O)C(O)CO)C(=S)[S][Na].[Na+]` (stereo not drawn) [Compound 9A], the main component content was 97.2%.

`O=C([O-])C(CO)N(CC(O)C(O)C(O)C(O)CO)C(=S)[S][K].[K+]` (stereo not drawn) [Compound 10A]: the main component content was found to be 99.5%.

Staying with this series, now noted: 5 ± 3° C., 10 d.
In the case of `O=C([O-])C(Cc1cccs1)N(CC(O)C(O)C(O)C(O)CO)C(=S)[S][Na].[Na+]` (stereo not drawn) [Compound 8A], the main component content stood at 96.2%.

As for `O=C([O-])C(Cc1cncs1)N(CC(O)C(O)C(O)C(O)CO)C(=S)[S][Na].[Na+]` (stereo not drawn) [Compound 9A], the main component content came to 96.0%.

In turn, `O=C([O-])C(CO)N(CC(O)C(O)C(O)C(O)CO)C(=S)[S][K].[K+]` (stereo not drawn) [Compound 10A] registered a main component content of 98.1%.

The same series, now with this note: 25 ± 2° C./60 ± 5% RH, 0 d (0 day content converted to 100%).
As to `O=C([O-])C(Cc1cccs1)N(CC(O)C(O)C(O)C(O)CO)C(=S)[S][Na].[Na+]` (stereo not drawn) [Compound 8A], the main component content came out at 100%.

On to `O=C([O-])C(Cc1cncs1)N(CC(O)C(O)C(O)C(O)CO)C(=S)[S][Na].[Na+]` (stereo not drawn) [Compound 9A], for which the main component content is on record as 100%.

Compound `O=C([O-])C(CO)N(CC(O)C(O)C(O)C(O)CO)C(=S)[S][K].[K+]` (stereo not drawn) [Compound 10A] gave a main component content of 100%.

The series is the same for the next values; noted with them: 25 ± 2° C./60 ± 5% RH, 5 d.
Consider `O=C([O-])C(Cc1cccs1)N(CC(O)C(O)C(O)C(O)CO)C(=S)[S][Na].[Na+]` (stereo not drawn) [Compound 8A], for which the main component content stood at 95.5%.

Take `O=C([O-])C(Cc1cncs1)N(CC(O)C(O)C(O)C(O)CO)C(=S)[S][Na].[Na+]` (stereo not drawn) [Compound 9A]: the main component content was 98.9%.

As to `O=C([O-])C(CO)N(CC(O)C(O)C(O)C(O)CO)C(=S)[S][K].[K+]` (stereo not drawn) [Compound 10A], the main component content came out at 97.0%.

Staying with this series, now noted: 25 ± 2° C./60 ± 5% RH, 10 d.
With `O=C([O-])C(Cc1cccs1)N(CC(O)C(O)C(O)C(O)CO)C(=S)[S][Na].[Na+]` (stereo not drawn) [Compound 8A], the main component content is on record as 93.3%.

On to `O=C([O-])C(Cc1cncs1)N(CC(O)C(O)C(O)C(O)CO)C(=S)[S][Na].[Na+]` (stereo not drawn) [Compound 9A], for which the main component content came out at 96.0%.

The compound `O=C([O-])C(CO)N(CC(O)C(O)C(O)C(O)CO)C(=S)[S][K].[K+]` (stereo not drawn) [Compound 10A] displayed a main component content of 96.1%.

Staying with this series, now noted: 40 ± 2° C./75 ± 5% RH, 0 d (0 day content converted to 100%).
`O=C([O-])C(Cc1cccs1)N(CC(O)C(O)C(O)C(O)CO)C(=S)[S][Na].[Na+]` (stereo not drawn) [Compound 8A] returned a main component content of 100%.

As for `O=C([O-])C(Cc1cncs1)N(CC(O)C(O)C(O)C(O)CO)C(=S)[S][Na].[Na+]` (stereo not drawn) [Compound 9A], the main component content was 100%.

On to `O=C([O-])C(CO)N(CC(O)C(O)C(O)C(O)CO)C(=S)[S][K].[K+]` (stereo not drawn) [Compound 10A], for which the main component content was found to be 100%.

Staying with this series, now noted: 40 ± 2° C./75 ± 5% RH, 5 d.
`O=C([O-])C(Cc1cccs1)N(CC(O)C(O)C(O)C(O)CO)C(=S)[S][Na].[Na+]` (stereo not drawn) [Compound 8A] yielded a main component content of 94.7%.

`O=C([O-])C(Cc1cncs1)N(CC(O)C(O)C(O)C(O)CO)C(=S)[S][Na].[Na+]` (stereo not drawn) [Compound 9A]: the main component content was found to be 92.6%.

Turning to `O=C([O-])C(CO)N(CC(O)C(O)C(O)C(O)CO)C(=S)[S][K].[K+]` (stereo not drawn) [Compound 10A], the main component content is listed as 92.0%.

The same series, now with this note: 40 ± 2° C./75 ± 5% RH, 10 d.
In the case of `O=C([O-])C(Cc1cccs1)N(CC(O)C(O)C(O)C(O)CO)C(=S)[S][Na].[Na+]` (stereo not drawn) [Compound 8A], the main component content was determined as 89.6%.

Consider `O=C([O-])C(Cc1cncs1)N(CC(O)C(O)C(O)C(O)CO)C(=S)[S][Na].[Na+]` (stereo not drawn) [Compound 9A], for which the main component content was found to be 91.5%.

With `O=C([O-])C(CO)N(CC(O)C(O)C(O)C(O)CO)C(=S)[S][K].[K+]` (stereo not drawn) [Compound 10A], the main component content came to 90.3%.

The series is the same for the next values; noted with them: 60° C., 0 d (0 day content converted to 100%).
`O=C([O-])C(Cc1cccs1)N(CC(O)C(O)C(O)C(O)CO)C(=S)[S][Na].[Na+]` (stereo not drawn) [Compound 8A] gave a main component content of 100%.

Consider `O=C([O-])C(Cc1cncs1)N(CC(O)C(O)C(O)C(O)CO)C(=S)[S][Na].[Na+]` (stereo not drawn) [Compound 9A], for which the main component content was determined as 100%.

The compound `O=C([O-])C(CO)N(CC(O)C(O)C(O)C(O)CO)C(=S)[S][K].[K+]` (stereo not drawn) [Compound 10A] gave a main component content of 100%.

The series is the same for the next values; noted with them: 60° C., 5 d.
As to `O=C([O-])C(Cc1cccs1)N(CC(O)C(O)C(O)C(O)CO)C(=S)[S][Na].[Na+]` (stereo not drawn) [Compound 8A], the main component content came to 80.4%.

On to `O=C([O-])C(Cc1cncs1)N(CC(O)C(O)C(O)C(O)CO)C(=S)[S][Na].[Na+]` (stereo not drawn) [Compound 9A], for which the main component content turned out to be 84.5%.

The compound `O=C([O-])C(CO)N(CC(O)C(O)C(O)C(O)CO)C(=S)[S][K].[K+]` (stereo not drawn) [Compound 10A] had a main component content of 82.0%.

Still in this series, the particulars now being: 60° C., 10 d.
Turning to `O=C([O-])C(Cc1cccs1)N(CC(O)C(O)C(O)C(O)CO)C(=S)[S][Na].[Na+]` (stereo not drawn) [Compound 8A], the main component content stood at 79.7%.

The compound `O=C([O-])C(Cc1cncs1)N(CC(O)C(O)C(O)C(O)CO)C(=S)[S][Na].[Na+]` (stereo not drawn) [Compound 9A] registered a main component content of 79.3%.

Take `O=C([O-])C(CO)N(CC(O)C(O)C(O)C(O)CO)C(=S)[S][K].[K+]` (stereo not drawn) [Compound 10A]: the main component content was 79.1%.

The series is the same for the next values; noted with them: −25° C., 0 d (0 day content converted to 100%).
Regarding `O=C([O-])C(Cc1cccs1)N(CC(O)C(O)C(O)C(O)CO)C(=S)[S][Na].[Na+]` (stereo not drawn) [Compound 8A], the main component content is on record as 100%.

The compound `O=C([O-])C(Cc1cncs1)N(CC(O)C(O)C(O)C(O)CO)C(=S)[S][Na].[Na+]` (stereo not drawn) [Compound 9A] displayed a main component content of 100%.

Turning to `O=C([O-])C(CO)N(CC(O)C(O)C(O)C(O)CO)C(=S)[S][K].[K+]` (stereo not drawn) [Compound 10A], the main component content is on record as 100%.

The series is the same for the next values; noted with them: −25° C., 5 d.
With `O=C([O-])C(Cc1cccs1)N(CC(O)C(O)C(O)C(O)CO)C(=S)[S][Na].[Na+]` (stereo not drawn) [Compound 8A], the main component content amounted to 101.1%.

Consider `O=C([O-])C(Cc1cncs1)N(CC(O)C(O)C(O)C(O)CO)C(=S)[S][Na].[Na+]` (stereo not drawn) [Compound 9A], for which the main component content is 100.7%.

With `O=C([O-])C(CO)N(CC(O)C(O)C(O)C(O)CO)C(=S)[S][K].[K+]` (stereo not drawn) [Compound 10A], the main component content is recorded as 100.5%.

The same series, now with this note: −25° C., 10 d.
On to `O=C([O-])C(Cc1cccs1)N(CC(O)C(O)C(O)C(O)CO)C(=S)[S][Na].[Na+]` (stereo not drawn) [Compound 8A], for which the main component content stood at 100.3%.

Regarding `O=C([O-])C(Cc1cncs1)N(CC(O)C(O)C(O)C(O)CO)C(=S)[S][Na].[Na+]` (stereo not drawn) [Compound 9A], the main component content stood at 100.5%.

Compound `O=C([O-])C(CO)N(CC(O)C(O)C(O)C(O)CO)C(=S)[S][K].[K+]` (stereo not drawn) [Compound 10A] came in with a main component content of 101.4%.
